Data reported in patent US20080095754A1, “OPHTHALMIC COMPOSITIONS COMPRISING DIGLYCINE” (priority 2006, published 2008).
Residues, ends and D or L forms follow the SMILES beside them.

How the values were obtained:
lysozyme [1] = experiment: Far-UV circular dichroism (CD) thermal melting of lysozyme in formulated solutions; assay type: physicochemical; settings: for reversibility of thermal denaturation / refolding of lysozyme, CD: second scan; for change of lysozyme Tm, CD: glycerin 1%, trehalose 1% and 5%, alone
Experimental: (§1) To evaluate the effect of diglycine on the conformational stability of lysozyme, Formulations 1 and 2 as well as a formulation without diglycine were analyzed by differential scanning calorimetry (DSC) and circular dichroism (CD). Before DSC and CD analysis, a lysozyme solution was prepared in borate buffer, pH 7.3 (sodium borate, 0.09%; boric acid, 0.85%; sodium chloride, 0.22%) at a concentration of 5 mg/mL, and was dialyzed against the formulated solutions containing 0, 1 (Formulation 1), and 3% (Formulation 2) diglycine, at 2-8° C. for 16 hours. Thermal scans were preformed twice to investigate the reversibility of thermal unfolding for both DSC and CD. This study examines the values of melting temperature (Tm), unfolding enthalpies (ΔH), and the ability of the lysozyme to refold upon unfolding for each of the three formulations because these parameters, in general, predict the thermostability of a protein and approximates the susceptibility of a protein to aggegrate and other irreversible changes at lower temperatures.
CD spectra were conducted on a Jasco-810 Spectropolarimeter. The far-UV CD studies were preformed in a 1-mm pathlength cell at a protein concentration of 0.2 mg/mL, using a scan rate of 50 nm/min from 190 nm to 260 nm and a scan rate of 1° C./min from 20° C. to 95° C. The melting temperatures and the unfolding enthalpies were determined from the denaturation curved obtained from the dependency of the mean residue ellipticity at 230 nm on temperature.
A second experiment screened the additives glycerin, trehalose, and hyaluronic acid (HA) in combination with 1% diglycine, for their ability to stabilize the conformation of lysozyme. VP-DSC and CD were again used to measure the melting temperatures (Tm), unfolding enthalpies (ΔH), and the ability to refold the lysozyme upon unfolding.
Before DSC and CD analysis, the lysozyme solution was prepared in a borate buffer, pH 7.3 (sodium borate, 0.09%; boric acid, 0.85%; sodium chloride, 0.22%) at a concentration of 5 mg/mL. It was then dialyzed against the formulated solutions containing either 1% glycerin, 1% trehalose, 5% trehalose, 1% diglycine and 3% glycerin, or 1% diglycine and 3% trehalose, at 2-8° C. for 16 hours. For the hyaluronic acid formulation, the lysozyme solution was dialyzed against the borate buffer, and subsequently diluted to the desired concentrations with 0.2% of hyaluronic acid for analyses. Thermal scans were performed twice to investigate the reversibility of thermal unfolding for both methods.
The VP-DSC results are supported by the circular dichroism (CD) spectral measurements which were conducted as a function of temperature on a Jasco-810 Spectropolarimeter. The far-UV CD studies were performed in a 1-mm pathlength cell at a protein concentration of 0.2 mg/mL, and a scan rate of 1° C./min form 20° C. to 95° C. The melting temperatures and the Van't Hoff enthalpies were determined from denaturation curves obtained from the mean residue ellipticity at 230 nm as a function of temperature. Tables 2 and 3 summarize the results of the CD measurements and FIGS. 13-18 show the CD-thermal scans.

lysozyme [2] = experiment: VP-DSC thermal unfolding of lysozyme in formulated solutions; assay type: physicochemical; settings: for increase in the melting temperature of lysozyme: in both VP-DSC and CD; for reversibility of thermal denaturation / refolding of lysozyme, VP-DSC: second scan
Experimental: as §1
For the DSC analysis, thermograms were obtained on a VP-DSC (Microcal, USA) at a scan rate of 90° C. per hour from 10° C. to 95° C. All samples were diluted with the formulated solutions to a concentration of 0.5 mg/mL, and degassed for 4 minutes using a vacuum. The thermograms were corrected for the baseline signal and normalized for protein concentration. Using a non-2-state unfolding model, the Tm and the ΔH were determined by Origin software. […]

Compound | reversibility of thermal denaturation / refolding of lysozyme, CD (lysozyme [1]) | increase in the melting temperature of lysozyme (lysozyme [2]; 1% w/w diglycine vs borate buffer) | increase in the melting temperature of lysozyme (lysozyme [2]; 3% w/w diglycine vs borate buffer) [°C] | reversibility of thermal denaturation / refolding of lysozyme, VP-DSC (lysozyme [2]) | change of lysozyme Tm, CD (lysozyme [1]) | change of lysozyme Tm, VP-DSC (lysozyme [2])
NCC(=O)NCC(=O)O [diglycine] (H-Gly-Gly-OH) | at least partially reversible | approximately 2 °C | ~4 | at least partially reversible | – | –
OCC(O)CO [glycerin] | partial refolding phenomenon | – | – | not able to refold | did not increase | did not increase
OC[C@H]1O[C@H](O[C@H]2O[C@H](CO)[C@@H](O)[C@H](O)[C@H]2O)[C@H](O)[C@@H](O)[C@@H]1O [trehalose] | not able to refold | – | – | not able to refold | did not increase | did not increase
